Drawing on patent US20240423207A1, “PICOLINAMIDE COMPOUNDS WITH FUNGICIDAL ACTIVITY” (CORTEVA AGRISCIENCE LLC, priority 2014, published 2024), this text covers pest or weed control for 22 molecules.

Assay [1] relates to Mycosphaerella graminicola; Anamorph: Septoria tritici. Nature of the assay: Leaf Blotch of Wheat (SEPTTR) fungicidal activity on wheat seedlings. As to conditions: Zymoseptoria tritici; for pest or weed control at 121.5 g/ha: Low Volume, 121.5 g/H. The format is in vivo. The procedure: Example A: Evaluation of Fungicidal Activity: Leaf Blotch of Wheat (Mycosphaerella graminicola; Anamorph: Septoria tritici; Bayer code […]): Technical grades of materials were dissolved in acetone, which were then mixed with nine volumes of water (H2O) containing 110 ppm Triton X-100. The fungicide solutions were applied onto wheat seedlings using an automated booth sprayer to run-off. All sprayed plants were allowed to air dry prior to further handling. All fungicides were evaluated using the aforementioned method for their activity vs. all target diseases, unless stated otherwise. Wheat leaf blotch and brown rust activity were also evaluated using track spray applications, in which case the fungicides were formulated as EC formulations, containing 0.1% Trycol 5941 in the spray solutions. Wheat plants (variety Yuma) were grown from seed in a greenhouse in 50% mineral soil/50% soil-less Metro mix until the first leaf was fully emerged, with 7-10 seedlings per pot. These plants were inoculated with an aqueous spore suspension of Septoria tritici either prior to or after fungicide treatments. After inoculation the plants were kept in 100% relative humidity (one day in a dark dew chamber followed by two to three days in a lighted dew chamber at 20° C.) to permit spores to germinate and infect the leaf. The plants were then transferred to a greenhouse set at 20° C. for disease to develop. When disease symptoms were fully expressed on the 1st leaves of untreated plants, infection levels were assessed on a scale of 0 to 100 percent disease severity. Percent disease control was calculated using the ratio of disease severity on treated plants relative to untreated plants.

The subject of assay [2] is Puccinia triticina; Synonym: Puccinia recondita f sp. tritici. Description: Wheat Brown Rust (PUCCRT) fungicidal activity on wheat seedlings. In kind it is in vivo. As to conditions: for pest or weed control at 100 ppm: High Volume; for pest or weed control at 121.5 g/ha: Low Volume, 121.5 g/H. The procedure:
Technical grades of materials were dissolved in acetone, which were then mixed with nine volumes of water (H2O) containing 110 ppm Triton X-100. The fungicide solutions were applied onto wheat seedlings using an automated booth sprayer to run-off. All sprayed plants were allowed to air dry prior to further handling. All fungicides were evaluated using the aforementioned method for their activity vs. all target diseases, unless stated otherwise. Wheat leaf blotch and brown rust activity were also evaluated using track spray applications, in which case the fungicides were formulated as EC formulations, containing 0.1% Trycol 5941 in the spray solutions. Wheat plants (variety Yuma) were grown from seed in a greenhouse in 50% mineral soil/50% soil-less Metro mix until the first leaf was fully emerged, with 7-10 seedlings per pot. These plants were inoculated with an aqueous spore suspension of Septoria tritici either prior to or after fungicide treatments. After inoculation the plants were kept in 100% relative humidity (one day in a dark dew chamber followed by two to three days in a lighted dew chamber at 20° C.) to permit spores to germinate and infect the leaf. The plants were then transferred to a greenhouse set at 20° C. for disease to develop. When disease symptoms were fully expressed on the 1st leaves of untreated plants, infection levels were assessed on a scale of 0 to 100 percent disease severity. Percent disease control was calculated using the ratio of disease severity on treated plants relative to untreated plants. Example B: Evaluation of Fungicidal Activity: Wheat Brown Rust (Puccinia triticina; Synonym: Puccinia recondita f sp. tritici; Bayer code PUCCRT): Wheat plants (variety Yuma) were grown from seed in a greenhouse in 50% mineral soil/50% soil-less Metro mix until the first leaf was fully emerged, with 7-10 seedlings per pot. These plants were inoculated with an aqueous spore suspension of Puccinia triticina either prior to or after fungicide treatments. After inoculation the plants were kept in a dark dew room at 22° C. with 100% relative humidity overnight to permit spores to germinate and infect the leaf. The plants were then transferred to a greenhouse set at 24° C. for disease to develop. Fungicide formulation, application and disease assessment followed the procedures as described in the Example A.

[3] abbreviates: 24 h, High Volume, 100 ppm, 1 Day Protectant, read-out: SEPTTR 1DP disease control.
Setting [4] is: 72 h, High Volume, 100 ppm, 3 Day Curative, read-out: SEPTTR 3DC disease control.
[5] abbreviates: 24 h, 1 Day Protectant, read-out: PUCCRT 1DP disease control.
Where [6] appears, read: 72 h, 3 Day Curative, read-out: PUCCRT 3DC disease control.
Setting [7] is: 24 h, 1 Day Protectant, read-out: SEPTTR 1DP disease control.
[8] abbreviates: 72 h, 3 Day Curative, read-out: SEPTTR 3DC disease control.

The structures appear in SMILES notation. Like-named read-outs stand apart in the source and are kept apart here.

For the molecule `COc1ccnc(C(=O)N[C@@H](C)C(=O)O[C@@H](C)C(c2ccc(C)cc2)c2ccc(C)cc2)c1O` [Cmpd 105], the pest or weed control at 100 ppm in assay [1] (setting [3]), in assay [1] (setting [4]), in assay [2] (setting [5]) and in assay [2] (setting [6]) was greater than 80% each time.

As for `COc1ccnc(C(=O)N[C@@H](C)C(=O)O[C@@H](C)C(c2ccc(F)c(C)c2)c2ccc(F)c(C)c2)c1OC(C)=O` [Cmpd 217], the pest or weed control at 121.5 g/ha was greater than 80% in assay [1] (setting [7]), greater than 80% in assay [1] (setting [8]), greater than 80% in assay [2] (setting [5]) and less than 80% in assay [2] (setting [6]).

For the molecule `COc1ccnc(C(=O)N[C@@H](C)C(=O)O[C@@H](C)C(c2ccccc2)c2ccccc2)c1O` [Cmpd 90, (S)-(S)-1,1-diphenylpropan-2-yl 2-(3-hydroxy-4-methoxypicolinamido)propanoate], the pest or weed control at 100 ppm in assay [1] (24 h, read-out: SEPTTR 1DP disease control) was greater than 80%; in assay [1] (72 h, read-out: SEPTTR 3DC disease control), greater than 80%; in assay [2] (setting [5]), greater than 80%; in assay [2] (setting [6]) it was greater than 80%.

Regarding `COc1ccnc(C(=O)NCC(=O)O[C@@H](C)C(c2ccc(F)cc2)c2ccc(F)cc2)c1O` [Cmpd 113], the pest or weed control at 100 ppm is greater than 80% in assay [1] (setting [3]), less than 80% in assay [1] (setting [4]), greater than 80% in assay [2] (setting [5]) and less than 80% in assay [2] (setting [6]).

For the molecule `COc1ccnc(C(=O)N[C@@H](C)C(=O)O[C@@H](C)C(c2ccc(Cl)c(C)c2)c2ccc(Cl)c(C)c2)c1O` [Cmpd 129], the pest or weed control at 100 ppm in assay [1] (setting [3]) was greater than 80%; in assay [1] (setting [4]), greater than 80%; in assay [2] (setting [5]), greater than 80%; in assay [2] (setting [6]), less than 80%.

Take `COc1ccnc(C(=O)N[C@@H](C)C(=O)O[C@@H](C)C(c2ccc(Cl)c(C)c2)c2ccc(Cl)c(C)c2)c1OC(C)=O` [Cmpd 206]: the pest or weed control at 121.5 g/ha in assay [1] (setting [7]) was greater than 80%; in assay [1] (setting [8]), greater than 80%; in assay [2] (setting [5]) it was greater than 80%; in assay [2] (setting [6]) it was less than 80%.

Take `COc1ccnc(C(=O)N[C@@H](C)C(=O)O[C@@H](C)C(c2ccc(F)c(F)c2)c2ccc(F)c(F)c2)c1OC(C)=O` [Cmpd 215]: the pest or weed control at 121.5 g/ha in assay [1] (setting [7]), in assay [1] (setting [8]) and in assay [2] (setting [5]) was greater than 80% each time.

Take `COc1ccnc(C(=O)N[C@@H](C)C(=O)O[C@@H](C)C(c2ccc(F)cc2F)c2ccc(F)cc2F)c1O` [Cmpd 96]: the pest or weed control at 100 ppm in assay [1] (setting [3]), in assay [1] (setting [4]), in assay [2] (setting [5]) and in assay [2] (setting [6]) was greater than 80% each time.

Turning to `COc1ccnc(C(=O)N[C@@H](C)C(=O)OC(C)C2c3ccccc3-c3ccccc32)c1OCOC(C)=O` (stereo partly shown) [Cmpd 163], the pest or weed control at 121.5 g/ha is less than 80% in assay [1] (setting [7]), greater than 80% in assay [1] (setting [8]) and less than 80% in assay [2] (setting [5]).

In the case of `CC[C@H](NC(=O)c1nccc(OC)c1OC(C)=O)C(=O)O[C@@H](C)C(c1ccc(F)cc1)c1ccc(F)cc1` [Cmpd 188], the pest or weed control at 121.5 g/ha in assay [1] (setting [7]) is greater than 80%; in assay [1] (setting [8]) it was greater than 80%; in assay [2] (setting [5]), greater than 80%; in assay [2] (setting [6]), less than 80%.

Consider `COc1ccnc(C(=O)N[C@@H](C)C(=O)O[C@@H](C)C(c2cccc(Cl)c2)c2cccc(Cl)c2)c1OCOC(C)=O` [Cmpd 160], for which the pest or weed control at 121.5 g/ha in assay [1] (setting [7]) was greater than 80%; in assay [1] (setting [8]), greater than 80%; in assay [2] (setting [5]), greater than 80%; in assay [2] (setting [6]), less than 80%.

With `CC[C@H](NC(=O)c1nccc(OC)c1OCOC(C)=O)C(=O)O[C@@H](C)C(c1ccc(F)cc1)c1ccc(F)cc1` [Cmpd 184], the pest or weed control at 121.5 g/ha in assay [1] (setting [7]), in assay [1] (setting [8]), in assay [2] (setting [5]) and in assay [2] (setting [6]) was greater than 80% throughout.

In the case of `COc1ccnc(C(=O)N[C@@H](C)C(=O)O[C@@H](C)C(c2ccc(F)cc2)c2ccc(F)cc2)c1OC(=O)C(C)C` [Cmpd 208], the pest or weed control at 121.5 g/ha in assay [1] (setting [7]) was greater than 80%; in assay [1] (setting [8]), greater than 80%; in assay [2] (setting [5]), greater than 80%; in assay [2] (setting [6]) it was less than 80%.

As for `COc1ccnc(C(=O)N[C@@H](C)C(=O)O[C@@H](C)C(c2ccc(C)cc2)c2ccc(C)cc2)c1OC(=O)C(C)C` [Cmpd 168], the pest or weed control at 121.5 g/ha in assay [1] (setting [7]) was greater than 80%; in assay [1] (setting [8]) it was greater than 80%; in assay [2] (setting [5]), greater than 80%; in assay [2] (setting [6]) it was less than 80%.

As to `COc1ccccc1C(c1ccccc1OC)[C@H](C)OC(=O)[C@H](C)NC(=O)c1nccc(OC)c1OCOC(C)=O` [Cmpd 191], the pest or weed control at 121.5 g/ha in assay [1] (setting [7]), in assay [1] (setting [8]), in assay [2] (setting [5]) and in assay [2] (setting [6]) was greater than 80% throughout.

Regarding `COc1ccnc(C(=O)N[C@@H](C)C(=O)O[C@@H](C)C(c2ccc(C)c(F)c2)c2ccc(C)c(F)c2)c1OCOC(C)=O` [Cmpd 194], the pest or weed control at 121.5 g/ha was greater than 80% in assay [1] (setting [7]), greater than 80% in assay [1] (setting [8]), greater than 80% in assay [2] (setting [5]) and less than 80% in assay [2] (setting [6]).

As for `COc1ccnc(C(=O)N[C@@H](C)C(=O)O[C@@H](C)C(c2cccc(Cl)c2)c2cccc(Cl)c2)c1O` [Cmpd 100], the pest or weed control at 100 ppm in assay [1] (setting [3]), in assay [1] (setting [4]), in assay [2] (setting [5]) and in assay [2] (setting [6]) was greater than 80% in each case.

For `COc1ccnc(C(=O)NCC(=O)O[C@@H](C)C(c2ccc(F)cc2)c2ccc(F)cc2)c1OCOC(C)=O` [Cmpd 183], the pest or weed control at 121.5 g/ha in assay [1] (setting [7]) is greater than 80%; in assay [1] (setting [8]) it was less than 80%; in assay [2] (setting [5]), greater than 80%; in assay [2] (setting [6]), greater than 80%.

Take `COc1ccnc(C(=O)N[C@@H](C)C(=O)O[C@@H](C)[C@@H](c2ccccc2)c2ccc(F)cc2)c1OCOC(C)=O` [Cmpd 199]: the pest or weed control at 121.5 g/ha in assay [1] (setting [7]), in assay [1] (setting [8]), in assay [2] (setting [5]) and in assay [2] (setting [6]) was greater than 80% each time.

Consider `CCCCC(=O)Oc1c(OC)ccnc1C(=O)N[C@@H](C)C(=O)O[C@@H](C)C(c1ccc(F)cc1)c1ccc(F)cc1` [Cmpd 213], for which the pest or weed control at 121.5 g/ha is greater than 80% in assay [1] (setting [7]), greater than 80% in assay [1] (setting [8]), less than 80% in assay [2] (setting [5]) and less than 80% in assay [2] (setting [6]).

As for `COc1ccnc(C(=O)NCC(=O)O[C@@H](C)C(c2ccc(F)cc2)c2ccc(F)cc2)c1OC(C)=O` [Cmpd 187], the pest or weed control at 121.5 g/ha in assay [1] (setting [7]) is less than 80%; in assay [1] (setting [8]) it was less than 80%; in assay [2] (setting [5]), greater than 80%; in assay [2] (setting [6]) it was less than 80%.

Consider `COc1ccnc(C(=O)N[C@@H](C)C(=O)O[C@@H](C)C(c2ccc(C)s2)c2ccc(C)s2)c1OC(C)=O` [Cmpd 166], for which the pest or weed control at 121.5 g/ha in assay [1] (setting [7]), in assay [1] (setting [8]) and in assay [2] (setting [5]) was less than 80% throughout.
